Here are results for 27 compounds from patent US11524960B2, “Heterobicyclic inhibitors of MAT2A and methods of use for treating cancer” (AGIOS PHARMACEUTICALS, INC., priority 2018, dated 2022).

Molecules are shown by their SMILES. Some results are limits rather than exact numbers.

For this assay, the target named is T1, MAT2A homodimer (Homo sapiens, UniProt P31153).
T1 construct: inferred from Ni sepharose purification and imidazole elution; made in house; host or cells: Sf9 insect cells, recombinant baculovirus (Bac to Bac, pFASTBAC1)
T1 sequence (P31153 whole entry): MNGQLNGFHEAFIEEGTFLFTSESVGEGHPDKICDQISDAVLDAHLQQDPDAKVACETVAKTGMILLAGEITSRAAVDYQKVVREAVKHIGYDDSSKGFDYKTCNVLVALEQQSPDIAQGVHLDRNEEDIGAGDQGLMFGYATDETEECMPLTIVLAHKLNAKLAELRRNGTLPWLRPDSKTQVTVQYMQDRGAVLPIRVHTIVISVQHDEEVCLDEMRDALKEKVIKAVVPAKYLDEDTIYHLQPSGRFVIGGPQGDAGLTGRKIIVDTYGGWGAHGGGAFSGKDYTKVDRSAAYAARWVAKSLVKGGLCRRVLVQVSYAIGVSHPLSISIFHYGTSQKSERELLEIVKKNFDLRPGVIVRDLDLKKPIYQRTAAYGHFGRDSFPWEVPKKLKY
In words: Biochemical assay: inhibition of MAT2A (phosphate release, PiColorLock Gold). To be noted: MAT2A IC50 score; read-out: Enzyme Inhibition (Example 275). The protocol: Mat2A protein was expressed by recombinant baculovirus in SF9 infected cells using the Bac to Bac system cloned into the pFASTBAC1 vector (Invitrogen, Carlsbad, Calif.). Recombinant MAT2A was isolated from the cell lysate of 150 g of infected cells using HP Ni sepharose column chromatography. Recombinant MAT2A homodimer was eluted with 250 and 500 mM imidazole, and fractions containing MAT2A were identified by sodium dodecyl sulfate polyacrylamide gel electrophoresis and pooled.
For determination of the inhibitory potency of compounds against the MAT2A homodimer, protein was diluted to […] in assay buffer (50 mM Tris, pH 8.0, 50 mM KCl, 15 mM MgCl2, 0.3 mM EDTA, 0.005% [w/v] bovine serum albumin [BSA]). Test compound was prepared in 100% dimethyl sulfoxide (DMSO) at 50× the desired final concentration. […] of compound dilution was added to 40 μL of enzyme dilution and the mixture was allowed to equilibrate for 60 minutes at 25° C. The enzymatic assay was initiated by the addition of 10 μL of substrate mix (500 μM ATP, pH 7.0, 400 μM L-methionine in 1× assay buffer), and the mixture was incubated for a further 60 minutes at 25° C. The reaction was halted and the liberated phosphate released by the enzyme in stoichiometric amounts by the production of S-adenosyl methionine (SAM) was measured using the PiColorLock Gold kit (Innova Biosciences, UK). Absolute product amounts were determined by comparison to a standard curve of potassium phosphate buffer, pH 8.0.
In the case of `COc1ccc(N2Cc3cnc(NCC4CC4)nc3C3(CCN(Cc4cc[nH]n4)C3)C2=O)cc1` (stereo not drawn) [Example 101, 1′-((1H-pyrazol-3-yl)methyl)-2-((cyclopropylmethyl)amino)-6-(4-methoxyphenyl)-5H-spiro[pyrido[4,3-d]pyrimidine-8,3′-pyrrolidin]-7(6H)-one], the IC50 lay within 0.1 to 1 µM.
Regarding `COc1ccc(N2Cc3cnc(NCC4CC4)nc3C3(CCN(Cc4cn[nH]c4)C3)C2=O)cc1` (stereo not drawn) [Example 102, 1′-((1H-pyrazol-4-yl)methyl)-2-((cyclopropylmethyl)amino)-6-(4-methoxyphenyl)-5H-spiro[pyrido[4,3-d]pyrimidine-8,3′-pyrrolidin]-7(6H)-one], the IC50 was in the range of 1 to 10 µM.
The result for `COc1ccc(N2Cc3cnc(NCC4CC4)nc3C3(CCN(Cc4cscn4)C3)C2=O)cc1` (stereo not drawn) [Example 103, 2-((cyclopropylmethyl)amino)-6-(4-methoxyphenyl)-1′-(thiazol-4-ylmethyl)-5H-spiro[pyrido[4,3-d]pyrimidine-8,3′-pyrrolidin]-7(6H)-one] reads 0.1 to 1 µM; that for `COc1ccc(N2Cc3cnc(NCC4CC4)nc3C3(CCN(C4CCCCC4)C3)C2=O)cc1` (stereo not drawn) [Example 104, 1′-cyclohexyl-2-((cyclopropylmethyl)amino)-6-(4-methoxyphenyl)-5H-spiro[pyrido[4,3-d]pyrimidine-8,3′-pyrrolidin]-7(6H)-one], 1 to 10 µM; that for `COC(=O)C1CC(N2CCC3(C2)C(=O)N(c2ccc(OC)cc2)Cc2cnc(NCC4CC4)nc23)C1` (stereo not drawn) [Example 105, methyl 3-(2-((cyclopropylmethyl)amino)-6-(4-methoxyphenyl)-7-oxo-6,7-dihydro-5H-spiro[pyrido[4,3-d]pyrimidine-8,3′-pyrrolidin]-1′-yl)cyclobutanecarboxylate], 1 to 10 µM.
The result for `O=C1N(c2cnoc2)Cc2cnc(NCC3CC3)nc2C12CCN(Cc1ccon1)C2` (stereo not drawn) [Example 106, 2-((cyclopropylmethyl)amino)-1′-(isoxazol-3-ylmethyl)-6-(isoxazol-4-yl)-5H-spiro[pyrido[4,3-d]pyrimidine-8,3′-pyrrolidin]-7(6H)-one] reads 1 to 10 µM; that for `O=C1N(c2cnoc2)Cc2cnc(NCC3CC3)nc2C12CCN(Cc1cscn1)C2` (stereo not drawn) [Example 107, 2-((cyclopropylmethyl)amino)-6-(isoxazol-4-yl)-1′-(thiazol-4-ylmethyl)-5H-spiro[pyrido[4,3-d]pyrimidine-8,3′-pyrrolidin]-7(6H)-one], 1 to 10 µM.
The figure for `O=C1N(c2cnoc2)Cc2cnc(NCC3CC3)nc2C12CCN(Cc1n[nH]cc1Cl)C2` (stereo not drawn) [Example 108, 1′-((4-chloro-1H-pyrazol-3-yl)methyl)-2-((cyclopropylmethyl)amino)-6-(isoxazol-4-yl)-5H-spiro[pyrido[4,3-d]pyrimidine-8,3′-pyrrolidin]-7(6H)-one] is 1 to 10 µM; for `O=C1N(c2ccc3nc[nH]c3c2)Cc2cnc(NCC3CC3)nc2C12CCN(Cc1cc[nH]n1)C2` (stereo not drawn) [Example 109, 1′-((H-pyrazol-3-yl)methyl)-6-(1H-benzo[d]imidazol-6-yl)-2-((cyclopropylmethyl)amino)-5H-spiro[pyrido[4,3-d]pyrimidine-8,3′-pyrrolidin]-7(6H)-one] it is 0.1 to 1 µM; for `COc1ccc(N2Cc3cnc(NCC(F)(F)F)nc3C3(CCN(Cc4cc[nH]n4)C3)C2=O)cc1` (stereo not drawn) [Example 110] it is 0.1 to 1 µM.
With `CCNc1ncc2c(n1)C1(CCN(Cc3cc[nH]n3)C1)C(=O)N(c1ccc(OC)cc1)C2` (stereo not drawn) [Example 111, 1′-((1H-pyrazol-3-yl)methyl)-2-(ethylamino)-6-(4-methoxyphenyl)-5H-spiro[pyrido[4,3-d]pyrimidine-8,3′-pyrrolidin]-7(6H)-one], the IC50 is 1 to 10 µM.
As for `COc1ccc(N2Cc3cnc(NC4CCC4)nc3C3(CCN(Cc4cc[nH]n4)C3)C2=O)cc1` (stereo not drawn) [Example 112, 1′-((1H-pyrazol-3-yl)methyl)-2-(cyclobutylamino)-6-(4-methoxyphenyl)-5H-spiro[pyrido[4,3-d]pyrimidine-8,3′-pyrrolidin]-7(6H)-one], the IC50 was 0.1 to 1 µM.
The figure for `COc1ccc(N2Cc3cnc(NCC(C)C)nc3C3(CCN(Cc4cc[nH]n4)C3)C2=O)cc1` (stereo not drawn) [Example 113, 1′-((1H-pyrazol-3-yl)methyl)-2-(isobutylamino)-6-(4-methoxyphenyl)-5H-spiro[pyrido[4,3-d]pyrimidine-8,3′-pyrrolidin]-7(6H)-one] is 0.1 to 1 µM.
The figure for `COc1ccc(N2Cc3cnc(OCC4CC4)nc3C3(CCN(Cc4ccn[nH]4)C3)C2=O)cc1` (stereo not drawn) [Example 114, 1′-((1H-pyrazol-3-yl)methyl)-2-(cyclopropylmethoxy)-6-(4-methoxyphenyl)-5H-spiro[pyrido[4,3-d]pyrimidine-8,3′-pyrrolidin]-7(6H)-one] is 0.1 to 1 µM; for `COc1ccc(N2Cc3cnc(SCC4CC4)nc3C3(CCN(Cc4cc[nH]n4)C3)C2=O)cc1` (stereo not drawn) [Example 115, 1′-((1H-pyrazol-3-yl)methyl)-2-((cyclopropylmethyl)thio)-6-(4-methoxyphenyl)-5H-spiro[pyrido[4,3-d]pyrimidine-8,3′-pyrrolidin]-7(6H)-one] it is 0.1 to 1 µM; for `COc1ccc(N2Cc3cnc(NCC(F)(F)F)nc3C3(CCC(O)CC3)C2=O)cc1` (stereo not drawn) [Example 116, 4-hydroxy-6′-(4-methoxyphenyl)-2′-((2,2,2-trifluoroethyl)amino)-5′H-spiro[cyclohexane-1,8′-pyrido[4,3-d]pyrimidin]-7′(6′H)-one] it is 1 to 10 µM.
The result for `COc1ccc(N2Cc3cnc(NCC(F)(F)F)nc3C3(CCN(c4nnc(N)s4)CC3)C2=O)cc1` [Example 117, 1-(5-amino-1,3,4-thiadiazol-2-yl)-6′-(4-methoxyphenyl)-2′-((2,2,2-trifluoroethyl)amino)-5′H-spiro[piperidine-4,8′-pyrido[4,3-d]pyrimidin]-7′(6′H)-one] reads 1 to 10 µM; that for `COc1ccc(CN2Cc3cnc(NCC4CC4)nc3C3(CCN(Cc4ccccc4)C3)C2=O)cc1` (stereo not drawn) [Example 118, 1′-benzyl-2-((cyclopropylmethyl)amino)-6-(4-methoxybenzyl)-5,6-dihydro-7H-spiro[pyrido[4,3-d]pyrimidine-8,3′-pyrrolidin]-7-one], 1 to 10 µM; that for `COc1cc(CN2Cc3cnc(NCC4CC4)nc3C3(CCN(Cc4ccccc4F)C3)C2=O)ccn1` (stereo not drawn) [Example 119, 2-((cyclopropylmethyl)amino)-1′-(2-fluorobenzyl)-6-((2-methoxypyridin-4-yl)methyl)-5,6-dihydro-7H-spiro[pyrido[4,3-d]pyrimidine-8,3′-pyrrolidin]-7-one], 1 to 10 µM.
`O=C1N(Cc2ccn[nH]2)Cc2cnc(NCC3CC3)nc2C12CCN(Cc1ccccc1F)C2` (stereo not drawn) [Example 120, 6-((1H-pyrazol-5-yl)methyl)-2-((cyclopropylmethyl)amino)-1′-(2-fluorobenzyl)-5,6-dihydro-7H-spiro[pyrido[4,3-d]pyrimidine-8,3′-pyrrolidin]-7-one]: the IC50 was 1 to 10 µM.
The figure for `O=C1N(c2cnoc2)Cc2cnc(NCC3CC3)nc2C12CCN(Cc1ccccc1F)C2` (stereo not drawn) [Example 121, 2-((cyclopropylmethyl)amino)-1′-(2-fluorobenzyl)-6-(isoxazol-4-yl)-5,6-dihydro-7H-spiro[pyrido[4,3-d]pyrimidine-8,3′-pyrrolidin]-7-one] is 0.1 to 1 µM; for `O=C1N(c2cn[nH]c2)Cc2cnc(NCC3CC3)nc2C12CCN(Cc1ccccc1F)C2` (stereo not drawn) [Example 122, 2-((cyclopropylmethyl)amino)-1′-(2-fluorobenzyl)-6-(1H-pyrazol-4-yl)-5,6-dihydro-7H-spiro[pyrido[4,3-d]pyrimidine-8,3′-pyrrolidin]-7-one] it is 0.1 to 1 µM; for `O=c1c(-c2ccc(Cl)cc2)c2nc(NCC(F)(F)F)ncc2cn1-c1ccc2nscc2c1` [Example 125, 6-(benzo[c]isothiazol-5-yl)-8-(4-chlorophenyl)-2-((2,2,2-trifluoroethyl)amino)pyrido[4,3-d]pyrimidin-7(6H)-one] it is under 0.1 µM.
The figure for `Cn1cc2cc(-n3cc4cnc(NCC(F)(F)F)nc4c(-c4ccc(Cl)cc4)c3=O)cnc2n1` [Example 126, 8-(4-chlorophenyl)-6-(2-methyl-2H-pyrazolo[3,4-b]pyridin-5-yl)-2-((2,2,2-trifluoroethyl)amino)pyrido[4,3-d]pyrimidin-7(6H)-one] is 1 to 10 µM; for `CC(C)n1cnc2ccc(-n3cc4cnc(NCC(F)(F)F)nc4c(-c4ccc(Cl)cc4)c3=O)cc21` [Example 128, 8-(4-chlorophenyl)-6-(1-isopropyl-1H-benzo[d]imidazol-6-yl)-2-(2,2,2-trifluoroethylamino)pyrido[4,3-d]pyrimidin-7(6H)-one] it is under 0.1 µM.
The figure for `O=c1c(-c2ccc(Cl)cc2)c2nc(NCC(F)(F)F)ncc2cn1-c1ccn2nccc2c1` [Example 130, 8-(4-chlorophenyl)-6-(pyrazolo[1,5-a]pyridin-5-yl)-2-(2,2,2-trifluoroethylamino)pyrido[4,3-d]pyrimidin-7(6H)-one] is under 0.1 µM.
In the case of `O=c1c(-c2ccc(Cl)cc2)c2nc(NCC(F)(F)F)ncc2cn1-c1ccc2nnccc2c1` [Example 131, 8-(4-chlorophenyl)-6-(cinnolin-6-yl)-2-(2,2,2-trifluoroethylamino)pyrido[4,3-d]pyrimidin-7(6)-one], the IC50 is under 0.1 µM.
